Measurements taken from the supplement of paper PMC10331698.
± gives the standard deviation of the averaged measurements.

Experiments:
Test in all cases: level (log10 ratio to DMSO vehicle control); higher = higher biomarker level / cell amount than vehicle control
[1] = compound: O=S(=O)(OCC(F)(F)F)C(F)(F)C(F)(F)C(F)(F)C(F)(F)F [2,2,2-Trifluoroethyl perfluorobutanesulfonate]; settings: in DMSO
Experimental: (§1)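 BioMAP Diversity Plus panel of 12 human primary cell co-culture systems (3C, 4H, LPS, SAg, BT, BF4T, BE3C, CASM3C, HDF3CGF, KF3CT, MyoF, Mphg). Compounds were added 1 h before stimulation and left for 24 h (MyoF 48 h; BT 72 h for soluble read-outs or 6 d for IgG). Biomarkers were read by ELISA, cytotoxicity by SRB, PBMC viability and proliferation by Alamar Blue. Each well value was divided by the mean of 8 DMSO control wells on the same plate and log10 transformed; duplicate blinded samples were tested at 4 concentrations.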

[2] = compound: FC(F)(F)COC(OCC(F)(F)F)OCC(F)(F)F [tris(Trifluoroethoxy)methane]; settings: in DMSO
Experimental: as §1

[3] = compound: C=CC(=O)OCC(F)(F)C(F)(F)C(F)(F)C(F)(F)COC(=O)C=C [1H,1H,6H,6H-Perfluorohexane-1,6-diol diacrylate]; settings: 6700 nM; in DMSO
Experimental: as §1

[4] = compound: C=CC(=O)OCC(F)(F)C(F)(F)C(F)(F)C(F)(F)C(F)(F)C(F)(F)C(F)(F)C(F)F [1H,1H,9H-Perfluorononyl acrylate]; settings: in DMSO
Experimental: as §1

[5] = compound: FC(F)(F)C(F)(F)C(F)(F)C(F)(F)CCI [1H,1H,2H,2H-Perfluorohexyl iodide]; settings: in DMSO
Experimental: as §1

[6] = compound: Cc1ccc(S(=O)(=O)OCC(F)(F)C(F)(F)C(F)(F)C(F)(F)C(F)(F)C(F)F)cc1 [1H,1H,7H-Perfluoroheptyl 4-methylbenzenesulfonate]; settings: in DMSO
Experimental: as §1

[7] = compound: OCC(F)(F)C(F)(F)C(F)(F)C(F)(F)C(F)(F)C(F)(F)C(F)(F)C(F)(F)CO [1H,1H,10H,10H-Perfluorodecane-1,10-diol]; settings: in DMSO
Experimental: as §1

Test System | level (log10) ([1]; 6700 nM) | level (log10) ([1]; 20000 nM) | level (log10) ([1]; 60000 nM) | level (log10) ([2]; 6700 nM) | level (log10) ([2]; 20000 nM) | level (log10) ([2]; 60000 nM) | level (log10) [3] | level (log10) ([4]; 6700 nM) | level (log10) ([4]; 20000 nM) | level (log10) ([4]; 60000 nM) | level (log10) ([5]; 6700 nM) | level (log10) ([5]; 20000 nM) | level (log10) ([5]; 60000 nM) | level (log10) ([6]; 6700 nM) | level (log10) ([6]; 20000 nM) | level (log10) ([6]; 60000 nM) | level (log10) ([7]; 6700 nM) | level (log10) ([7]; 20000 nM) | level (log10) ([7]; 60000 nM)
3C:CD106/VCAM-1 | -0.0165 ± 0.012 | -0.016 ± 0.0085 | 0.0015 ± 0.0021 | -0.002 ± 0.016 | -0.0045 ± 0.019 | 0.0095 ± 0.0078 | -0.058 ± 0.0071 | -0.03 | -0.022 ± 0.0057 | -0.042 ± 0.02 | 0.0045 ± 0.026 | -0.015 ± 0.0014 | -0.0145 ± 0.021 | -0.0205 ± 0.0064 | -0.0085 ± 0.0064 | -0.037 ± 0.025 | -0.023 ± 0.0071 | -0.0225 ± 0.0021 | -0.052
KF3CT:CCL2/MCP-1 | -0.018 ± 0.057 | -0.0485 ± 0.044 | -0.022 ± 0.014 | -0.021 ± 0.035 | -0.029 ± 0.0085 | 0.0315 ± 0.052 | -0.101 ± 0.045 | -0.0075 ± 0.043 | -0.057 ± 0.024 | -0.137 ± 0.085 | -0.0255 ± 0.026 | -0.015 ± 0.04 | -0.004 ± 0.047 | 0.0035 ± 0.028 | -0.077 ± 0.025 | -0.009 ± 0.048 | -0.028 ± 0.021 | -0.024 ± 0.016 | -0.272
HDF3CGF:Proliferation 72hr | -0.046 | -0.0425 ± 0.029 | -0.1 ± 0.047 | -0.038 ± 0.081 | 0.001 ± 0.038 | -0.006 ± 0.038 | -0.567 ± 0.013 | -0.072 ± 0.079 | -0.454 ± 0.021 | -0.666 ± 0.15 | 0.0275 ± 0.025 | 0.0095 ± 0.076 | 0.006 ± 0.04 | -0.031 ± 0.011 | 0.0195 ± 0.036 | -0.197 ± 0.11 | -0.0305 ± 0.046 | -0.112 ± 0.05 | -1.01
HDF3CGF:Collagen I | -0.0325 ± 0.016 | -0.0635 ± 0.04 | -0.047 ± 0.028 | 0.0165 ± 0.061 | 0.0025 ± 0.042 | 0.0345 ± 0.03 | -0.013 ± 0.048 | -0.0115 ± 0.016 | -0.0075 ± 0.056 | -0.0605 ± 0.11 | 0.004 ± 0.047 | -0.0205 ± 0.063 | 0.015 ± 0.11 | 0.025 ± 0.051 | 0.0485 ± 0.066 | 0.027 ± 0.052 | 0.029 ± 0.0014 | -0.01 ± 0.025 | 0.035
3C:CCL2/MCP-1 | 0.0095 ± 0.011 | 0.004 ± 0.035 | 0.023 ± 0.057 | -0.0065 ± 0.019 | -0.0115 ± 0.022 | 0.021 ± 0.048 | 0.025 ± 0.044 | 0.0115 ± 0.053 | -0.017 ± 0.016 | 0.008 ± 0.024 | 0.015 ± 0.0014 | -0.0195 ± 0.0092 | 0.0055 ± 0.026 | -0.011 ± 0.0028 | -0.0075 ± 0.0021 | -0.0475 ± 0.011 | -0.0015 ± 0.005 | 0.0055 ± 0.00071 | 0.018
CASM3C:SRB | -0.006 | -0.005 ± 0.0028 | -0.0055 ± 0.0064 | -0.0005 ± 0.011 | -0.0065 ± 0.013 | -0.0095 ± 0.013 | 0 ± 0.0014 | 0.0075 ± 0.015 | 0.005 ± 0.0014 | -0.001 ± 0.014 | 0 ± 0.014 | -0.0005 ± 0.0092 | -0.005 ± 0.033 | 0.002 ± 0.0014 | -0.0055 ± 0.0078 | -0.0125 ± 0.0035 | 0.0015 ± 0.0021 | -0.002 ± 0.0099 | -0.067
BE3C:tPA | 0.0045 ± 0.021 | 0.028 ± 0.016 | 0.085 ± 0.031 | -0.0075 ± 0.013 | -0.028 ± 0.024 | -0.0125 ± 0.021 | -0.077 ± 0.0099 | 0.0175 ± 0.018 | 0.0315 ± 0.0035 | 0.026 ± 0.0099 | -0.001 ± 0.0028 | 0.0175 ± 0.019 | 0.051 ± 0.014 | -0.002 ± 0.044 | -0.032 ± 0.054 | -0.013 ± 0.034 | 0.073 ± 0.021 | 0.097 ± 0.011 | -0.108
BE3C:MMP-9 | -0.0355 ± 0.021 | -0.041 ± 0.033 | -0.061 ± 0.028 | -0.005 ± 0.0028 | -0.004 ± 0.0014 | 0.0045 ± 0.019 | -0.0435 ± 0.018 | 0.0015 ± 0.0035 | -0.0185 ± 0.012 | 0 ± 0.021 | 0.0015 ± 0.05 | -0.006 ± 0.028 | 0.029 ± 0.047 | 0.012 ± 0.027 | -0.0165 ± 0.021 | -0.003 ± 0.035 | 0 ± 0.0071 | -0.041 ± 0.0042 | -0.14
CASM3C:CD142/Tissue Factor | 0.013 ± 0.011 | 0.0485 ± 0.0021 | 0.133 ± 0.052 | 0.0185 ± 0.047 | -0.011 ± 0.0085 | -0.0275 ± 0.016 | -0.004 ± 0.059 | 0.0345 ± 0.026 | -0.003 ± 0.061 | -0.016 ± 0.0014 | -0.019 ± 0.034 | -0.0065 ± 0.0078 | 0.0235 ± 0.035 | -0.038 ± 0.014 | -0.057 ± 0.047 | -0.0205 ± 0.03 | -0.0275 ± 0.015 | -0.02 ± 0.0042 | -0.033
KF3CT:TIMP-2 | -0.049 ± 0.0057 | -0.0215 ± 0.049 | -0.0495 ± 0.00071 | -0.0025 ± 0.021 | -0.007 ± 0.011 | -0.0045 ± 0.012 | -0.088 ± 0.0057 | -0.0125 ± 0.046 | -0.022 ± 0.0085 | -0.042 ± 0.011 | -0.0185 ± 0.005 | -0.009 ± 0.018 | -0.008 ± 0.02 | -0.0015 ± 0.005 | 0.0025 ± 0.029 | 0.017 ± 0.021 | -0.001 ± 0.011 | 0.011 ± 0.0099 | -0.133
KF3CT:PAI-I | 0.0005 ± 0.028 | 0.003 ± 0.033 | 0.0265 ± 0.018 | -0.0035 ± 0.0035 | -0.006 ± 0.0014 | 0.0025 ± 0.0092 | 0.048 ± 0.0071 | -0.017 | -0.023 ± 0.042 | -0.0465 ± 0.022 | -0.0025 ± 0.023 | -0.001 ± 0.013 | -0.0225 ± 0.015 | -0.016 ± 0.02 | 0.0005 ± 0.0078 | -0.032 ± 0.0042 | -0.0015 ± 0.021 | 0.023 ± 0.018 | -0.341
lMphg:SRB | -0.005 ± 0.0071 | -0.012 ± 0.0085 | -0.008 ± 0.018 | -0.0035 ± 0.011 | -0.0025 ± 0.0021 | 0.0045 ± 0.023 | -0.0075 ± 0.0035 | -0.003 ± 0.0014 | -0.005 ± 0.0042 | -0.005 ± 0.0057 | -0.008 ± 0.011 | -0.003 ± 0.0028 | 0 ± 0.021 | 0.004 ± 0.013 | -0.002 ± 0.0042 | -0.0055 ± 0.00071 | -0.0025 ± 0.013 | -0.014 ± 0.0057 | -1.09
CASM3C:LDLR | -0.019 ± 0.062 | -0.0255 ± 0.013 | -0.0135 ± 0.0035 | -0.0325 ± 0.022 | -0.0055 ± 0.015 | 0.008 ± 0.013 | 0.001 ± 0.028 | -0.0545 ± 0.026 | 0.0515 ± 0.042 | 0.0355 ± 0.063 | 0.0305 ± 0.021 | 0.02 ± 0.035 | 0.0415 ± 0.053 | -0.0095 ± 0.0092 | 0.007 ± 0.0099 | 0.0285 ± 0.022 | -0.016 ± 0.035 | 0.0035 ± 0.016 | -0.048
HDF3CGF:CXCL11/I-TAC | -0.014 ± 0.016 | -0.0495 ± 0.00071 | -0.137 ± 0.016 | -0.01 ± 0.0014 | -0.0125 ± 0.021 | -0.0145 ± 0.026 | -0.574 ± 0.078 | -0.014 ± 0.0014 | -0.066 ± 0.033 | -0.214 ± 0.11 | 0.006 ± 0.011 | -0.0165 ± 0.012 | -0.0835 ± 0.00071 | -0.005 ± 0.027 | 0.036 ± 0.057 | -0.001 ± 0.092 | 0.013 ± 0.0042 | -0.031 ± 0.025 | -0.497
MyoF:PAI-I | -0.0115 ± 0.0092 | -0.011 ± 0.018 | -0.0065 ± 0.018 | -0.0045 ± 0.018 | -0.0035 ± 0.00071 | 0.008 ± 0.0042 | 0 ± 0.042 | -0.0225 ± 0.0078 | -0.0345 ± 0.047 | -0.045 ± 0.0099 | 0.0085 ± 0.0064 | -0.003 ± 0.0071 | 0.0085 ± 0.03 | -0.007 ± 0.0085 | -0.0085 ± 0.013 | -0.019 ± 0.013 | -0.0155 ± 0.005 | -0.008 ± 0.0042 | -0.005
